Where a SMILES comes first, the peptide text is derived from it. The star is where a group is joined. Cbz = O=C(OCc1ccccc1)*; OtBu = CC(C)(C)O*
Tests used:
NF-κB subunits = experiment: Immunoblot of nuclear and cytoplasmic extracts of BMDCs for NF-κB subunits; type: cell-based; details: murine BM precursors 6 days with GM-CSF and IL-4 in the presence of BAY
Experimental: To independently assess the relationship between RelB nuclear translocation and tolerance induction, BMDCs were generated in the presence or absence of the compound BAY 11-7082 (BAY). […] Murine BM precursors were incubated for 6 days with GM-CSF and IL-4 to produce BMDCs, in the presence or absence of BAY. All NF-κB subunits were demonstrable in BMDCs generated in the absence of BAY, and were present in both nuclear and cytoplasmic extracts (FIG. 2a). […] However, CD86 was expressed at higher levels in BAY-treated DCs than RelB-deficient DCs. […]
Nuclear and cytoplasmic extracts were prepared as previously described (Pettit et al., 1997) and protein estimations carried out using a Protein Assay kit (Bio-Rad, Hercules, Calif.). […] Following transfer to nitrocellulose (Amersham. Sussex, England), membranes were immunoblotted with either anti-RelB (sc-226), anti-p50 (sc-7178), anti-c-Rel, anti-RelA, or anti-p52 antibodies (all from Santa Cruz Biotechnology) followed by sheep anti-rabbit HRP-conjugated Ig (Silenus, Hawthorn, Australia) and then detected by enhanced chemiluminescence (ECL, Life Technologies, MO, USA) according to the manufacturer's instructions (Amersham).

BMDCs = experiment: Cell surface marker expression, yield and viability of murine BMDCs generated with BAY (flow cytometry); type: cell-based
Experimental: To independently assess the relationship between RelB nuclear translocation and tolerance induction, BMDCs were generated in the presence or absence of the compound BAY 11-7082 (BAY). […] Murine BM precursors were incubated for 6 days with GM-CSF and IL-4 to produce BMDCs, in the presence or absence of BAY. All NF-κB subunits were demonstrable in BMDCs generated in the absence of BAY, and were present in both nuclear and cytoplasmic extracts (FIG. 2a). […] However, CD86 was expressed at higher levels in BAY-treated DCs than RelB-deficient DCs. […] The ability of adoptively-transferred BAY-treated DCs to prime an mBSA-specific T cell proliferative response in naïve syngeneic mice when pulsed with the antigen mBSA was reduced, compared with mBSA-pulsed untreated BMDCs, or immunisation with mBSA and CFA (FIG. 2c).
According to the inventors' experience, every new batch of BAY needs to be titrated. The final concentration for mouse BMDC cultures may range between 2 and 15 μM. Since tolerance induction correlates precisely with CD40 expression by the DC, varying concentrations of BAY are added to BM DC cultures. At day 6-8, yield is check and viability test using PI and CD40 expression by FACS. […]
BMDCs were incubated for 30 min on ice with anti-CD86-FITC (GL1, PharMingen, San Diego, Calif.), anti-CD11c-PE (HL3, PharMingen), anti-CD11b-PE (M1/70, PharMingen), F4/80-PE (Serotec, Raleigh, N.C.), CD8α-PE (53-6.7, PharMingen), CD3-PE (17A2, PharMingen), or with anti-CD40 (3/23, PharMingen), anti-CD19 (1D3, American Type Culture Collection, ATCC), anti-Ly6-g and c (Gr1, RB6-BC5), anti-CD45R (B220, RA3-6B2, each a gift from G. Hill, Queensland Institute for Medical Research, Brisbane, Q1d), anti-MHC class I and anti-MHC class II (2G9, PharMingen), followed by biotinylated rabbit anti-rat Ig (DAKO, CA) and then streptavidin-FITC (DAKO). After washing, cells were analyzed using a FACScalibur (Becton Dickinson, San Jose, Calif.). Intracellular cytokine production was measured in lymphocytes by flow cytometric staining as described, with minor modifications (Sander et al., 1991). […]

RelB [1] = experiment: RelB DNA binding ELISA on nuclear extracts of monocyte-derived DC; type: cell-based; details: human PB monocytes 48 h with GM-CSF and IL-4, 8 μM BAY 11-7082
Experimental: FIG. 7 is a graphical representation showing that nuclear extracts from BAY-treated monocyte-derived DC (MDDC) lack RelB-DNA binding and are unresponsive to LPS. MDDC were generated for 48 h from PB monocytes in the presence of GM-CSF and IL-4 in the presence (BAY DC) or absence (control DC) of 8 μM BAY, then stimulated with 1 μg/mL LPS for 24 hr. Nuclear extracts were prepared and analysed for NFkB DNA binding by ELISA.
Human PB monocytes were purified from PBMC by immunomagnetic selection using anti-CD14. They were incubated for 48 h in the presence of 800 U/mL each GM-CSF and IL-4 in RPMI and 10% FCS in the presence or absence of 8 μM BAY 11-7082. Nuclear extracts were prepared and RelB DNA binding was assessed using ELISA, as previously described (O'Sullivan and Thomas, 2002). […]
p50 and RelB DNA binding was detected by ELISA using a Mercury Transfactor p50 Kit (Clontech, Calif.). 10 μg of nuclear extract were bound to wells coated with NF-κB consensus oligonucleotide then incubated with either anti-RelB (sc-226) or anti-p50 (sc-7178), followed by anti-rabbit […] Ig (Silenus) and then detected by measuring color development of TMB at 650 nm using a Multiskan plate reader (Labsystems) (O'Sullivan and Thomas, 2002).

[2] = test system: human monocyte-derived DC; experiment: Phenotype of human monocyte-derived DC by flow cytometry; type: cell-based; details: human monocytes 48 hours, GM-CSF, IL-4; 10 κM BAY11-7082 or 2.5 or 10 μM PSI; relative to immature DC
Experimental: FIG. 8 is a graphical representation showing that modified human DC lack CD40 compared to immature DC. MDDC were generated for 48 h from PB monocytes in the presence of GM-CSF and IL-4 in the presence (modified DC) or absence (immature DC) of BAY, then stained for various cell surface markers and analysed by flow cytometry.
FIG. 9 is a graphical representation showing that modified human DC are unresponsive to CD40L. MDDC were generated for 48 h from PB monocytes in the presence of GM-CSF and IL-4 in the presence (modified DC) or absence (immature DC) of BAY, washed then incubated with or without 50 ng/ml soluble CD40L. Cells were then stained for CD86 and HLA-DR and analysed by flow cytometry.
FIG. 22 is a graphical representation showing the phenotype of NF-κB^− dendritic cells is reproducible with different NF-κB inhibitors. Dendritic cells were generated from human monocytes for 48 hours in the presence of GM-CSF, IL-4 and in the presence or absence of either 10 μM BAY11-7082 or 2.5 or 10 μM PSI (N-benzyloxycarbonyl-Ile-Glu(O-tert-butyl)-Ala-leucinal). Cells were then stained with anti-CD40, anti-CD86, anti-HLA-DR and anti-MHC class I mAb (green lines) and compared with isotype control staining (purple) by flow cytometry.
Human PB monocytes were purified from PBMC by immunomagnetic selection using anti-CD14. They were incubated for 48 h in the presence of 800 U/mL each GM-CSF and IL-4 in RPMI and 10% FCS in the presence or absence of 8 μM BAY 11-7082. Nuclear extracts were prepared and RelB DNA binding was assessed using ELISA, as previously described (O'Sullivan and Thomas, 2002). […] In keeping with the lack of CD40 expression, modified DC were unresponsive to 24 h incubation with 500 ng/mL soluble CD40 ligand trimer (sCD40L, Immunex, Seattle Wash.).
The present inventors examined whether the phenotype of the described dendritic cells that are capable of inducing tolerance when transferred in vivo, is reproducible when dendritic cells are generated with various NT-κB^− inhibitors. Dendritic cells were generated from human monocles for 48 hours in the presence of GM-CSF, IL-4 and in the presence or absence of either 10 […] of the IκB phosphorylation inhibitor BAY11-7082 or 2.5 or 10 μM of the proteasome inhibitor PSI (N-benzyloxycarbonyl-Ile-Glu(O-tert-butyl)-Ala-leucinal).

NF-κB = details: Pierce et al., 1997; cited from earlier work
RelB [3] = details: LPS-treated monocyte-derived dendritic cells; cited from earlier work
[4] = murine BMDCs generated in the presence of BAY

Compound	NFκB subunit immunoreactivity in nuclear and cytoplasmic extracts (NF-κB subunits)	toxicity: yield and viability of BM DC cultures (BMDCs; concentrations higher than the minimum that suppresses CD40)	MHC class I and class II expression (BMDCs; [4])	cell surface CD40 expression (BMDCs; [4])	RelB nuclear DNA binding activity (RelB [1])	CD40 expression [2]	CD86 and MHC class I expression [2]	HLA-DR expression [2]	TNF-α-stimulated NF-κB translocation (NF-κB)	nuclear RelB translocation (RelB [3])
Cc1ccc(S(=O)(=O)/C=C/C#N)cc1 [BAY 11-7082]	in the cytoplasm but not the nucleus	more toxic and affect yield and viability	expressed reduced levels of MHC class I and class II	lacked cell surface CD40 expression	lacked RelB nuclear DNA binding activity	CD40 expression was suppressed	CD86 and MHC class I expression were not changed	HLA-DR was reduced	block TNF-α-stimulated NF-κB translocation through inhibition of IκB phosphorylation	
CC[C@H](C)[C@H](NC(=O)OCc1ccccc1)C(=O)N[C@@H](CCC(=O)OC(C)(C)C)C(=O)N[C@@H](C)C(=O)N[C@H](C=O)CC(C)C [PSI, N-benzyloxycarbonyl-Ile-Glu(O-tert-butyl)-Ala-leucinal] (Cbz-IE(OtBu)AL-aldehyde)						CD40 expression was suppressed	CD86 and MHC class I expression were not changed	HLA-DR was reduced		
C[S+]([O-])c1ccc(-c2nc(-c3ccncc3)c(-c3ccc(F)cc3)[nH]2)cc1 (stereo not shown) [SB203580]										blocks nuclear RelB translocation

Source: patent US20060182726A1, “Immunomodulating compositions, processes for their production and uses therefor” (The University of Queensland, priority 2002, published 2006)
